We go through 2 compounds from publication PMC5500888, “Structural insights into the mechanism of the membrane integral N-acyltransferase step in bacterial lipoprotein synthesis” (Nature Communications, 2017).

The target in one test is T1, LntPae (Pseudomonas aeruginosa, UniProt Q9ZI86).
T1 construct: gene lnt; full-length membrane enzyme, N-terminal thrombin-cleavable His6-tag (pET28a, synthetic gene), expressed in E. coli C41(DE3), purified in LMNG; tag cleavage not described
T1 sequence (Q9ZI86 1-511): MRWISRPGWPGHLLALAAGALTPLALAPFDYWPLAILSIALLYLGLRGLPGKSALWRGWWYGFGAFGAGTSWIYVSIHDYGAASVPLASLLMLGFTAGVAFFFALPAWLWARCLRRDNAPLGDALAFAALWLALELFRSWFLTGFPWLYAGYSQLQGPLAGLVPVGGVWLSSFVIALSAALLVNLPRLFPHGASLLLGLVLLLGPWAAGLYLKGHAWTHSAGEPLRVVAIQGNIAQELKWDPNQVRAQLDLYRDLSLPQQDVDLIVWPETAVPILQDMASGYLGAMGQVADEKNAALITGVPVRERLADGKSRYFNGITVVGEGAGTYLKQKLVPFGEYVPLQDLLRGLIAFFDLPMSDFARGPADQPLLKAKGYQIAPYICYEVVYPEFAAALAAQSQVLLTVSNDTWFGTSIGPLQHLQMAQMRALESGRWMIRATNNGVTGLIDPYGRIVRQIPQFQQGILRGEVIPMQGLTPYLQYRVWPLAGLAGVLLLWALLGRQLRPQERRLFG
The test can be described thus: SDS-PAGE band shift of FSL-1-biotin with western blot. Format: biochemical. The following applies: acyl donor 500 uM; co-substrate FSL-1-biotin 2.5-5 uM; 20 nM enzyme; 0.1% Triton X-100; pH 7.2 or 6.5; 37 C. (A western blot detects proteins with antibodies after separation by electrophoresis.)

For another test, the target named is T2, LntEco (Escherichia coli, UniProt P23930).
T2 construct: gene lnt; full-length membrane enzyme, N-terminal thrombin-cleavable His6-tag (pET28a, synthetic gene), expressed in E. coli C43(DE3), purified in LMNG; tag cleavage not described
The experiment in a line: TLC with fluorescence of lyso-NBD-PE formed. The note with it: labelled compound; NBD-PE 500 uM; co-substrate FSL-1 150 uM; 8 uM enzyme; 50 mM Tris-HCl pH 7.5, 150 mM NaCl, 1 mM TCEP, 0.02% LMNG; 37 C. Format: biochemical.

Consider `CCCCCCCC/C=C\CCCCCCCC(=O)OC[C@H](COP(=O)(O)OCC(O)CO)OC(=O)CCCCCCC/C=C\CCCCCCCC` (some centres unmarked) [DOPG], for which the “SDS-PAGE band shift of FSL-1-biotin with western blot” value at LntPae was “When DOPE was replaced with DOPG or DOPC, the product was formed much less efficiently”.

Take `CCCCCCCC/C=C\CCCCCCCC(=O)OC[C@H](COP(=O)(O)OCCN)OC(=O)CCCCCCCCCCCNc1ccc([N+](=O)[O-])c2nonc12` [NBD-PE]: at LntEco, the “TLC with fluorescence of lyso-NBD-PE formed” value is listed as “Time course of lyso-PE production catalysed by LntEco”.
